This data set can be described thus: Piroctone olamine as a phenoxyethanol solution. The data set is classed as physicochemical. Particulars: if heated, for example to 80° C. As for the experimental part:
In some embodiments, piroctone olamine is dissolved in a suitable amount of phenoxyethanol; i.e., all or part of the phenoxyethanol of the composition can be employed as the solvent for the piroctone olamine. Typically, where phenoxyethanol is the solvent for the piroctone olamine pre-mix or pre-solution, the piroctone olamine is present in the pre-mixture or pre-solution in an amount of from 1-30% by weight; for example 5%, 10%, 15%, 20%, 25% or 30% by weight. In such embodiments, the mixture including the piroctone olamine and phenoxyethanol is preferably heated to a temperature of from 50-120° C.; for example from 60-100° C.; for example from 65-80° C.; preferably to effect partial or complete dissolution of the piroctone olamine.
The data above show the feasibility of adding piroctone olamine as a phenoxyethanol solution up to at least 30% w/w during bar soap manufacturing, if heated, for example to 80° C. Furthermore, some piroctone olamine can optionally be supplemented as a solution in a further solvent, such as a fragrance or a fragrance dissolved in a solvent, preferably up to 7.5% at room temperature.

For `Cc1cc(CC(C)CC(C)(C)C)n(O)c(=O)c1.NCCO` (stereo not shown) [piroctone olamine], the “piroctone olamine as a phenoxyethanol solution, feasible concentration” value is given as “at least 30 % w/w”.

These data come from patent publication US10821059B2, “Cleansing bars” (priority 2015, dated 2020).
